Source: the NIST ThermoML archive (doi:10.1021/je060389r)

How the values were obtained:
[1] = 298.15 K, 101 kPa, Liquid; for viscosity: Capillary tube (Ostwald / Ubbelohde) method; for speed of sound: Linear variable-path acoustic interferometer; for mass density: Pycnometric method
[2] = xn = mol fraction of the nth substance listed; details: 298.15 K, 101 kPa, Liquid; for viscosity: Capillary tube (Ostwald / Ubbelohde) method; for speed of sound: Linear variable-path acoustic interferometer; for mass density: Pycnometric method

CCCCCC [hexane]
[1]
Details | mass density [kg/m3] | speed of sound [m/s] | viscosity [mPa·s]
– | 654.9 | 1078.5 | 0.313

CC(C)CO [2-methyl-1-propanol] + CCCCCC
[2]
Details | mass density [kg/m3] | speed of sound [m/s] | viscosity [mPa·s]
x1 = 0.0554 | 660.1 | 1077.5 | 0.323
x1 = 0.104 | 664.9 | 1077.5 | 0.337
x1 = 0.2 | 675.1 | 1080.1 | 0.373
x1 = 0.3274 | 690.1 | 1086.7 | 0.462
x1 = 0.4173 | 701.6 | 1094.1 | 0.547
x1 = 0.4666 | 708.3 | 1099.2 | 0.606
x1 = 0.5057 | 713.8 | 1103.5 | 0.659
x1 = 0.5589 | 721.5 | 1110 | 0.748
x1 = 0.609 | 729 | 1116.9 | 0.859
x1 = 0.7073 | 744.6 | 1132.5 | 1.162
x1 = 0.8051 | 761.2 | 1150 | 1.627
x1 = 0.861 | 771.2 | 1161.3 | 2.004
x1 = 0.9149 | 781.3 | 1172.5 | 2.454
x1 = 0.9376 | 785.7 | 1177.5 | 2.67
x1 = 1 | 798.2 | 1191.3 | 3.404

CCCCCCCC [octane] + CC(C)CO
[2], x2 = 0
Details | mass density [kg/m3] | speed of sound [m/s] | viscosity [mPa·s]
– | 698.6 | 1170.9 | 0.518

CCCCCCCC [octane]
[1]
Details | mass density [kg/m3] | speed of sound [m/s] | viscosity [mPa·s]
– | 698.6 | 1170.9 | 0.518

CCCCCC [hexane] + CC(C)CO
[2], x2 = 0
Details | mass density [kg/m3] | speed of sound [m/s] | viscosity [mPa·s]
– | 654.9 | 1078.5 | 0.313

CC(C)CO [2-methyl-1-propanol]
[1]
Details | mass density [kg/m3] | speed of sound [m/s] | viscosity [mPa·s]
– | 798.2 | 1191.3 | 3.404

CCCCCCCCCC [decane]
[1]
Details | mass density [kg/m3] | speed of sound [m/s] | viscosity [mPa·s]
– | 725.9 | 1235.4 | 0.845

CCCCCCCCCC [decane] + CC(C)CO
[2], x2 = 0
Details | mass density [kg/m3] | speed of sound [m/s] | viscosity [mPa·s]
– | 725.9 | 1235.4 | 0.845

CC(C)CO [2-methyl-1-propanol] + CCCCCCCCCC
[2]
Details | mass density [kg/m3] | speed of sound [m/s] | viscosity [mPa·s]
x1 = 0.0728 | 728.1 | 1228.7 | 0.848
x1 = 0.1021 | 729 | 1226.6 | 0.859
x1 = 0.2032 | 732.6 | 1219.9 | 0.89
x1 = 0.2976 | 736.4 | 1215.2 | 0.934
x1 = 0.3547 | 739 | 1212.2 | 0.976
x1 = 0.4171 | 742.1 | 1209.4 | 1.023
x1 = 0.5016 | 747 | 1206.1 | 1.119
x1 = 0.6084 | 754.2 | 1201.8 | 1.297
x1 = 0.6575 | 758 | 1200.2 | 1.415
x1 = 0.7027 | 761.9 | 1198.4 | 1.543
x1 = 0.8004 | 771.6 | 1195.1 | 1.942
x1 = 0.8952 | 782.9 | 1192.9 | 2.503
x1 = 0.9497 | 790.5 | 1192 | 2.928
x1 = 0.9848 | 795.8 | 1191.8 | 3.249
x1 = 1 | 798.2 | 1191.3 | 3.404

CC(C)CO [2-methyl-1-propanol] + CCCCCCCC
[2]
Details | mass density [kg/m3] | speed of sound [m/s] | viscosity [mPa·s]
x1 = 0.0589 | 701.5 | 1168.3 | 0.527
x1 = 0.1165 | 704.5 | 1166.5 | 0.535
x1 = 0.205 | 709.8 | 1164.8 | 0.576
x1 = 0.2792 | 714.7 | 1164 | 0.617
x1 = 0.3371 | 718.9 | 1163.1 | 0.663
x1 = 0.4081 | 724.6 | 1162.7 | 0.719
x1 = 0.4662 | 729.6 | 1163.3 | 0.788
x1 = 0.5126 | 733.9 | 1163.7 | 0.85
x1 = 0.6126 | 744.1 | 1166.3 | 1.028
x1 = 0.6615 | 749.5 | 1168.4 | 1.154
x1 = 0.7069 | 754.9 | 1170 | 1.3
x1 = 0.7855 | 765 | 1173.5 | 1.634
x1 = 0.8615 | 775.8 | 1178.6 | 2.102
x1 = 0.9523 | 790.1 | 1187 | 2.875
x1 = 1 | 798.2 | 1191.3 | 3.404
